Reference: patent US9809865B2, “Anti-microbial agent from Paenibacillus sp. and methods and uses thereof” (Best Environmental Technologies, Inc., priority 2009, dated 2017)

Columns and labels:
E. coli RR1 = experiment: Effect of culture supernatant on exponentially growing E. coli RR1 (viable counts, OD600); assay type: cell-based, Escherichia coli; settings: viability of E. coli RR1 cells; OD600nm constant
Experimental: To determine the effect of P. polymyxa JB05-01-1 culture supernatant, E. coli RR1 cells were cultivated in the presence of concentrated P. polymyxa culture supernatant containing JB05-01-1 at final total activity of 0, 32, and 96 AU/ml. The OD600nm of culture was determined every two hours using a multi-detection microplate reader (Bio-Teck instrument Inc, Winooski, Vt., USA). The corresponding final cell concentration expressed as CFU/ml was determined as described by Naghmouchi et al. (2008). The inhibitory activity (I.A.) of culture supernatant containing JB05-01-1 was calculated as a percentage, I.A.=100-100[OD600(x)/OD600(i)], where (x) is culture supernatant containing JB05-01-1 at the corresponded total activity and (i) is the control culture. Data was reported as means of duplicate analyses.

[1] = test system: Streptococcus bovis ATCC 33317; experiment: Agar well diffusion method; assay type: cell-based; set-up: key: No inhibition at concentrations up of 0.1 μgml−1.; +: Diameter of the inhibition zone 10 ± 2 mm; ++: Diameter of the inhibition zone 16 ± 2 mm; +++: Diameter of the inhibition zone 28 ± 2 mm; settings: medium LB; polymyxin B at 0.1 μg ml^−1
Experimental: (§1) The qualitative antimicrobial spectrum of P. polymyxa culture supernatant was determined using the agar well diffusion method (Wolf and Gibbons 1996). […] The seeded agar was then poured into a sterile Petri plate and allowed to solidify at room temperature. Wells (7 mm) were cut in the solidified agar using a sterile metal cork borer and filled with 80 μl of supernatant. The plates were left at 5° C. for 2 h to allow diffusion of the tested aliquot and then incubated aerobically for 18 h at 30° C. Absence or presence of inhibition zones as well as their diameters were recorded.

[2] = test system: Paenibacillus polymyxa ATCC 43865; experiment: Agar well diffusion method; assay type: cell-based; set-up: key: No inhibition at concentrations up of 0.1 μgml−1.; +: Diameter of the inhibition zone 10 ± 2 mm; ++: Diameter of the inhibition zone 16 ± 2 mm; +++: Diameter of the inhibition zone 28 ± 2 mm; settings: medium LB; polymyxin B at 0.1 μg ml^−1
Experimental: as §1

[3] = test system: Lactococcus lactis ATCC 7962; experiment: Agar well diffusion method; assay type: cell-based; set-up: key: No inhibition at concentrations up of 0.1 μgml−1.; +: Diameter of the inhibition zone 10 ± 2 mm; ++: Diameter of the inhibition zone 16 ± 2 mm; +++: Diameter of the inhibition zone 28 ± 2 mm; settings: medium MRS; polymyxin B at 0.1 μg ml^−1
Experimental: as §1

[4] = test system: Pediococcus pentosaceus ATCC 25745; experiment: Agar well diffusion method; assay type: cell-based; set-up: key: No inhibition at concentrations up of 0.1 μgml−1.; +: Diameter of the inhibition zone 10 ± 2 mm; ++: Diameter of the inhibition zone 16 ± 2 mm; +++: Diameter of the inhibition zone 28 ± 2 mm; settings: medium LB; polymyxin B at 0.1 μg ml^−1
Experimental: as §1

[5] = test system: Bacillus circulans LRC 9E2; experiment: Agar well diffusion method; assay type: cell-based; set-up: key: No inhibition at concentrations up of 0.1 μgml−1.; +: Diameter of the inhibition zone 10 ± 2 mm; ++: Diameter of the inhibition zone 16 ± 2 mm; +++: Diameter of the inhibition zone 28 ± 2 mm; settings: medium LB; polymyxin B at 0.1 μg ml^−1
Experimental: as §1

[6] = test system: Enterococcus mundtii LRC 8369; experiment: Agar well diffusion method; assay type: cell-based; set-up: key: No inhibition at concentrations up of 0.1 μgml−1.; +: Diameter of the inhibition zone 10 ± 2 mm; ++: Diameter of the inhibition zone 16 ± 2 mm; +++: Diameter of the inhibition zone 28 ± 2 mm; settings: medium LB; polymyxin B at 0.1 μg ml^−1
Experimental: as §1

[7] = test system: Bacillus lecheniformis LRC 8422; experiment: Agar well diffusion method; assay type: cell-based; set-up: key: No inhibition at concentrations up of 0.1 μgml−1.; +: Diameter of the inhibition zone 10 ± 2 mm; ++: Diameter of the inhibition zone 16 ± 2 mm; +++: Diameter of the inhibition zone 28 ± 2 mm; settings: medium LB; polymyxin B at 0.1 μg ml^−1
Experimental: as §1

[8] = test system: Pediococcus acidilactici ATCC 25740; experiment: Agar well diffusion method; assay type: cell-based; set-up: key: No inhibition at concentrations up of 0.1 μgml−1.; +: Diameter of the inhibition zone 10 ± 2 mm; ++: Diameter of the inhibition zone 16 ± 2 mm; +++: Diameter of the inhibition zone 28 ± 2 mm; settings: medium MRS; polymyxin B at 0.1 μg ml^−1
Experimental: as §1

[9] = test system: Paenibacillus polymyxa ATCC 7070; experiment: Agar well diffusion method; assay type: cell-based; set-up: key: No inhibition at concentrations up of 0.1 μgml−1.; +: Diameter of the inhibition zone 10 ± 2 mm; ++: Diameter of the inhibition zone 16 ± 2 mm; +++: Diameter of the inhibition zone 28 ± 2 mm; settings: medium LB; polymyxin B at 0.1 μg ml^−1
Experimental: (§2) The qualitative antimicrobial spectrum of P. polymyxa culture supernatant was determined using the agar well diffusion method (Wolf and Gibbons 1996). Briefly, a 25-ml volume of molten tryptic soy agar (0.75% agar w/v) was cooled to 47° C. and seeded with 1% (v/v) overnight TSB culture of an indicator strain. The seeded agar was then poured into a sterile Petri plate and allowed to solidify at room temperature. Wells (7 mm) were cut in the solidified agar using a sterile metal cork borer and filled with 80 μl of supernatant. The plates were left at 5° C. for 2 h to allow diffusion of the tested aliquot and then incubated aerobically for 18 h at 30° C. Absence or presence of inhibition zones as well as their diameters were recorded.

Listeria ivanovii HPB 28 = experiment: Agar well diffusion method; assay type: cell-based; set-up: key: No inhibition at concentrations up of 0.1 μgml−1.; +: Diameter of the inhibition zone 10 ± 2 mm; ++: Diameter of the inhibition zone 16 ± 2 mm; +++: Diameter of the inhibition zone 28 ± 2 mm; settings: medium TSB; polymyxin B at 0.1 μg ml^−1
Experimental: as §2

Listeria innocua HPB 13 = experiment: Agar well diffusion method; assay type: cell-based; set-up: key: No inhibition at concentrations up of 0.1 μgml−1.; +: Diameter of the inhibition zone 10 ± 2 mm; ++: Diameter of the inhibition zone 16 ± 2 mm; +++: Diameter of the inhibition zone 28 ± 2 mm; settings: medium TSB; polymyxin B at 0.1 μg ml^−1
Experimental: as §2

[10] = test system: Paenibacillus polymyxa JB05-01-1; experiment: Agar well diffusion method; assay type: cell-based; set-up: key: No inhibition at concentrations up of 0.1 μgml−1.; +: Diameter of the inhibition zone 10 ± 2 mm; ++: Diameter of the inhibition zone 16 ± 2 mm; +++: Diameter of the inhibition zone 28 ± 2 mm; settings: medium LB; polymyxin B at 0.1 μg ml^−1
Experimental: as §2

[11] = test system: Pseudomonas fluorescens LRC R73; experiment: Agar well diffusion method; assay type: cell-based; settings: medium TSB; polymyxin B at 0.1 μg ml^−1
Experimental: as §2

[12] = test system: Pantoea agglomerans LRC BC1; experiment: Agar well diffusion method; assay type: cell-based; settings: medium TSB; polymyxin B at 0.1 μg ml^−1
Experimental: as §2

Escherichia coli LRC TB1 = experiment: Agar well diffusion method; assay type: cell-based; settings: medium TSB; polymyxin B at 0.1 μg ml^−1
Experimental: as §2

[13] = test system: Escherichia coli LRC SA1650; experiment: Agar well diffusion method; assay type: cell-based; settings: medium TSB; polymyxin B at 0.1 μg ml^−1
Experimental: as §2

Escherichia coli LRC RR1 = experiment: Agar well diffusion method; assay type: cell-based; settings: medium TSB; polymyxin B at 0.1 μg ml^−1
Experimental: as §2

Escherichia coli RR1 = experiment: Sensitivity to enzymes, detergents or urea, residual activity by agar diffusion test; assay type: physicochemical; settings: polymyxin B 0.1 μg ml^−1
Experimental: The sensitivities of the antimicrobial agent to proteases (all from Sigma-Aldrich, Oakville, ON) or other agents was tested by treating P. polymyxa JB05-01-1 culture supernatant with 2 mg ml^−1 final concentration of proteinase K (Tritirachium album), α-chymotrypsin (bovine pancreas), lipase (Sigma-Aldrich, Oakville, ON), trypsin (porcine pancreas), urea (Sigma-Aldrich, St. Louis Mo.), sodium dodecyl sulfate (SDS) (Sigma-Aldrich, St. Louis Mo.) for 1 h at 37° C. (Motta et al. 2007). Thermal stability of the antimicrobial activity was determined by holding aliquots (1000 μl) of 20 h culture supernatant at temperatures ranging from 50° C. to 90° C. for 30 min or at 100° C. for 10 min. The effect of pH was determined by adjusting the pH of P. polymyxa JB05-01-1 culture supernatant from 2 to 9 using 5 M HCl or NaOH. The activity of each sample was compared with the activity of untreated P. polymyxa JB05-01 culture supernatant at pH 6.8.
The effect of several organic solvents was evaluated by stirring 20 h culture supernatant for 2 h with 10% (v/v) acetonitrile, hexane, propanol, ethanol, toluene, acetone, butanol or methanol (all solvents were obtained from Sigma-Aldrich, St. Louis Mo.). Residual antimicrobial activities were tested using the agar diffusion assay against E. coli RR1 as described herein, with controls for effects of residual solvent.

[14] = test system: Fibrobacter succinogenes ATCC 19169; experiment: Agar well diffusion method; assay type: cell-based; settings: medium L-10; polymyxin B at 0.1 μg ml^−1
Experimental: as §1

[15] = test system: Butyrivibrio fibrisolvens LRC OR85; experiment: Agar well diffusion method; assay type: cell-based; settings: medium L-10; polymyxin B at 0.1 μg ml^−1
Experimental: as §1

Polymyxin B
Mode of action (E. coli RR1): bactericidal action | Inhibition (inhibition zone) [1]: − | Inhibition (inhibition zone) [2]: − | Inhibition (inhibition zone) [3]: − | Inhibition (inhibition zone) [4]: − | Inhibition (inhibition zone) [5]: − | Inhibition (inhibition zone) [6]: − | Inhibition (inhibition zone) [7]: − | Inhibition (inhibition zone) [8]: − | Inhibition (inhibition zone) [9]: − | Inhibition (inhibition zone) (Listeria ivanovii HPB 28): − | Inhibition (inhibition zone) (Listeria innocua HPB 13): − | Inhibition (inhibition zone) [10]: − | Inhibition (inhibition zone) [11]: ++ (Diameter of the inhibition zone 16 ± 2 mm) | Inhibition (inhibition zone) [12]: + (Diameter of the inhibition zone 10 ± 2 mm) | Inhibition (inhibition zone) (Escherichia coli LRC TB1): +++ (Diameter of the inhibition zone 28 ± 2 mm) | Inhibition (inhibition zone) [13]: ++ (Diameter of the inhibition zone 16 ± 2 mm) | Inhibition (inhibition zone) (Escherichia coli LRC RR1): +++ (Diameter of the inhibition zone 28 ± 2 mm) | % of residual activity (Escherichia coli RR1; Chymotrypsin 2 mg ml^−1, 1 h at 37° C.): 79.5% | % of residual activity (Escherichia coli RR1; Lipase 2 mg ml^−1, 1 h at 37° C.): 58.3% | % of residual activity (Escherichia coli RR1; Proteinase K 2 mg ml^−1, 1 h at 37° C.): 4.5% | % of residual activity (Escherichia coli RR1; SDS 2 mg ml^−1, 1 h at 37° C.): 70.1% | % of residual activity (Escherichia coli RR1; Trypsin 2 mg ml^−1, 1 h at 37° C.): 62.5% | % of residual activity (Escherichia coli RR1; Urea 2 mg ml^−1, 1 h at 37° C.): 62.5% | Inhibition (inhibition zone) [14]: + (Diameter of the inhibition zone 10 ± 2 mm) | Inhibition (inhibition zone) [15]: + (Diameter of the inhibition zone 10 ± 2 mm)
